Data on 22 compounds can be found in ChEMBL document CHEMBL1132667, “P2-achiral, P'-extended alpha-ketoamide inhibitors of calpain I” (Bioorg Med Chem Lett, 1999).

Each structure is given as a SMILES string.

Experiment [1] deals with T1, Calpain-1 catalytic subunit (Homo sapiens, UniProt P07384).
T1 sequence (P07384 whole entry): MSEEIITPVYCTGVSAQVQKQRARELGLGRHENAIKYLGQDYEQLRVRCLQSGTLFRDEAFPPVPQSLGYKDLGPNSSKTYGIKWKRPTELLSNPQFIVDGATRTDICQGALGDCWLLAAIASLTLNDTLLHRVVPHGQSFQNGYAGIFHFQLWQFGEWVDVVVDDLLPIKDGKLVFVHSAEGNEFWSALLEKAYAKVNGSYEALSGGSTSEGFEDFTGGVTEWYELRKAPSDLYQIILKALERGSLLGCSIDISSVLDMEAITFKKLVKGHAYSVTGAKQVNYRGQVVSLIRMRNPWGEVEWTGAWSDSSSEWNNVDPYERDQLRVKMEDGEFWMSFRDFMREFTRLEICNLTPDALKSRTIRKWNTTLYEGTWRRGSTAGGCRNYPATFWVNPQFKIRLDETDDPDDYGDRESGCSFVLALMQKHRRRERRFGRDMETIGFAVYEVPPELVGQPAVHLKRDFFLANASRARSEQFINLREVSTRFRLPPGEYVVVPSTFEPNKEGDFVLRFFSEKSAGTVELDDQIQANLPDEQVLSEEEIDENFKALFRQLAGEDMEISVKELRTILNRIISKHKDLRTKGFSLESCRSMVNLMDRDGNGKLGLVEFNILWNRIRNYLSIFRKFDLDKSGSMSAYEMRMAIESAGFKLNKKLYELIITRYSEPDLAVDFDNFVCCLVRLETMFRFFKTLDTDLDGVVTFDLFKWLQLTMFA
As to the kind of experiment: Inhibitory activity against recombinant human calpain I.

In experiment [2] the target is T1, Calpain-1 catalytic subunit. As to the kind of experiment: Inhibitory activity against recombinant human Calpain 1.

The term Ki denotes a dissociation constant, usually derived from enzyme kinetics or from competition with a known ligand. Regarding `N#Cc1cccc(-c2ccc(S(=O)(=O)NCCNC(=O)C(=O)[C@H](Cc3ccccc3)NC(=O)c3c(Cl)cccc3Cl)s2)c1`, the Ki in experiment [1] was 8 nM. Still for that read-out and setting: then `O=C(NCCNS(=O)(=O)c1ccc(-c2ccccn2)s1)C(=O)[C@H](Cc1ccccc1)NC(=O)c1cc(Cl)ccc1Cl`, with 49 nM. Regarding `O=C(CCCc1ccccc1)N[C@@H](Cc1ccccc1)C(=O)C(=O)NCCNS(=O)(=O)c1ccc(-c2ccccn2)s1`, in experiment [2], the Ki is 1100 nM. Same read-out and setting: the figure for `CC(C)CC(=O)N[C@@H](Cc1ccccc1)C(=O)C(=O)NCCNS(=O)(=O)c1ccc(-c2ccccn2)s1` is 420 nM. With `CC(=O)N1CCN(Cc2ccc(S(=O)(=O)NCCNC(=O)C(=O)[C@H](Cc3ccccc3)NC(=O)c3c(Cl)cccc3Cl)cc2)CC1`, in experiment [1], the inhibition constant Ki was determined as 71 nM. Same read-out and setting: the figure for `O=C(NCCNS(=O)(=O)c1ccc(-c2ccccn2)s1)C(=O)[C@H](Cc1ccccc1)NC(=O)c1c(Cl)cccc1Cl` is 26 nM. For the compound `O=C(NCCNS(=O)(=O)c1ccc(-c2cccc(CN3CCOCC3)c2)s1)C(=O)[C@H](Cc1ccccc1)NC(=O)c1c(Cl)cccc1Cl`, in experiment [2], the Ki was found to be 21 nM. Take `CC(=O)NCc1cccc(-c2ccc(S(=O)(=O)NCCNC(=O)C(=O)[C@H](Cc3ccccc3)NC(=O)c3c(Cl)cccc3Cl)s2)c1`: in experiment [1], the Ki stood at 14 nM. Same read-out and setting: then `O=C(NCCNS(=O)(=O)c1ccc(CN2CCN(c3ccccn3)CC2)cc1)C(=O)[C@H](Cc1ccccc1)NC(=O)c1c(Cl)cccc1Cl`, with 59 nM; and `O=Cc1cccc(-c2ccc(S(=O)(=O)NCCNC(=O)C(=O)[C@H](Cc3ccccc3)NC(=O)c3c(Cl)cccc3Cl)s2)c1`, with 15 nM; and `COc1ccc(Cl)c(C(=O)N[C@@H](Cc2ccccc2)C(=O)C(=O)NCCNS(=O)(=O)c2ccc(-c3ccccn3)s2)c1`, with 46 nM. Same read-out and setting: then `O=C(N[C@@H](Cc1ccccc1)C(=O)O)c1c(Cl)cccc1Cl`, with about 360 nM.

As for `O=C(NCCNS(=O)(=O)c1ccc(-c2ccccn2)s1)C(=O)[C@H](Cc1ccccc1)NC(=O)c1cc(C(F)(F)F)cc(C(F)(F)F)c1`, the Ki in experiment [1] was found to be 430 nM. The same measure, in the same setting: then `Cc1cccc(C)c1C(=O)N[C@@H](Cc1ccccc1)C(=O)C(=O)NCCNS(=O)(=O)c1ccc(-c2ccccn2)s1`, with 130 nM. As to `CC(C)CCC(=O)N[C@@H](Cc1ccccc1)C(=O)C(=O)NCCNS(=O)(=O)c1ccc(-c2ccccn2)s1`, the Ki in experiment [2] is 21 nM. For the compound `O=C(NCCNS(=O)(=O)c1ccc(-c2ccccn2)s1)C(=O)[C@H](Cc1ccccc1)NC(=O)c1ccccc1`, the Ki in experiment [1] was 570 nM. The same measure, in the same setting: the figure for `CC(CCC(=O)N[C@@H](Cc1ccccc1)C(=O)C(=O)NCCNS(=O)(=O)c1ccc(-c2ccccn2)s1)c1ccccc1` (some centres not stated) is 62 nM; for `CS(=O)(=O)N[C@H](COCc1ccccc1)C(=O)N[C@@H](Cc1ccccc1)C(=O)C(=O)NCCNS(=O)(=O)c1ccc(-c2ccccn2)s1` it is 10 nM. Turning to `CC(C)C(=O)N[C@@H](Cc1ccccc1)C(=O)C(=O)NCCNS(=O)(=O)c1ccc(-c2ccccn2)s1`, in experiment [2], the Ki was 1100 nM. Same read-out and setting: the figure for `O=C(Cc1ccc(Cl)nc1Cl)N[C@@H](Cc1ccccc1)C(=O)C(=O)NCCNS(=O)(=O)c1ccc(-c2ccccn2)s1` is 57 nM. Consider `O=C(NCCNS(=O)(=O)c1ccc(-c2ccccn2)s1)C(=O)[C@H](Cc1ccccc1)NC(=O)c1c(F)cccc1F`, for which the Ki in experiment [1] turned out to be 14 nM. On the same count and under the same terms, then `O=C(NCCNS(=O)(=O)c1ccc(-c2ccccn2)s1)C(=O)[C@H](Cc1ccccc1)NC(=O)c1ccc2c(c1)OCO2`, with over 1000 nM.
